The test system of the test is 186277-243-T-J2-PDC complex spheroid viability. The test can be described thus: Anticancer human tumor 186277-243-T-J2-PDC patient-derived colon adenocarcinoma cell line growth inhibition [GQUAD]. As to conditions: for viability, T/C: stronger effect = lower value. The essentials:
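Multi-cell-type spheroids of tumor cells with HUVEC and mesenchymal stem cells, treated with drug combinations. Concentrations descend in half-log steps from near clinical Cmax, or from 10 microM where Cmax is unknown; viability read-out.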

[1] abbreviates: curve of first compound, second compound 0.0316 µM.
Setting [2] is: curve of first compound, second compound 0.1 µM.
The mark [3] stands for this setting: curve of first compound, second compound 0.316 µM.
Where [4] appears, read: curve of first compound, second compound 1 µM.
Setting [5] is: curve of first compound, second compound 3.16 µM.
The mark [6] stands for this setting: curve of first compound, second compound 10 µM.
Where [7] appears, read: second compound 0.0316 µM, first compound 0.0316 µM.
Setting [8] is: second compound 0.0316 µM, first compound 0.1 µM.
Where [9] appears, read: second compound 0.0316 µM, first compound 0.316 µM.
[10] abbreviates: second compound 0.0316 µM, first compound 1 µM.
The mark [11] stands for this setting: second compound 0.0316 µM, first compound 3.16 µM.
[12] abbreviates: second compound 0.0316 µM, first compound 10 µM.
Where [13] appears, read: second compound 0.1 µM, first compound 0.0316 µM.
Setting [14] is: second compound 0.1 µM, first compound 0.1 µM.
The mark [15] stands for this setting: second compound 0.1 µM, first compound 0.316 µM.
Where [16] appears, read: second compound 0.1 µM, first compound 1 µM.
Where [17] appears, read: second compound 0.1 µM, first compound 3.16 µM.
Setting [18] is: second compound 0.1 µM, first compound 10 µM.
Where [19] appears, read: second compound 0.316 µM, first compound 0.0316 µM.
Setting [20] is: second compound 0.316 µM, first compound 0.1 µM.
The mark [21] stands for this setting: second compound 0.316 µM, first compound 0.316 µM.
Where [22] appears, read: second compound 0.316 µM, first compound 1 µM.
Where [23] appears, read: second compound 0.316 µM, first compound 3.16 µM.
The mark [24] stands for this setting: second compound 0.316 µM, first compound 10 µM.
Setting [25] is: second compound 1 µM, first compound 0.0316 µM.
The mark [26] stands for this setting: second compound 1 µM, first compound 0.1 µM.
Setting [27] is: second compound 1 µM, first compound 0.316 µM.
Where [28] appears, read: second compound 1 µM, first compound 1 µM.
Setting [29] is: second compound 1 µM, first compound 3.16 µM.
Where [30] appears, read: second compound 1 µM, first compound 10 µM.
Where [31] appears, read: second compound 3.16 µM, first compound 0.0316 µM.
Setting [32] is: second compound 3.16 µM, first compound 0.1 µM.
Where [33] appears, read: second compound 3.16 µM, first compound 0.316 µM.
Setting [34] is: second compound 3.16 µM, first compound 1 µM.
Where [35] appears, read: second compound 3.16 µM, first compound 3.16 µM.
Setting [36] is: second compound 3.16 µM, first compound 10 µM.
[37] abbreviates: second compound 10 µM, first compound 0.0316 µM.
[38] abbreviates: second compound 10 µM, first compound 0.1 µM.
Setting [39] is: second compound 10 µM, first compound 0.316 µM.
The mark [40] stands for this setting: second compound 10 µM, first compound 1 µM.
Where [41] appears, read: second compound 10 µM, first compound 3.16 µM.
Where [42] appears, read: second compound 10 µM, first compound 10 µM.

Values joined by “and” are separate entries in the source; they are usually repeats but may differ in a detail not shown here. Equal values may be shown once.
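Also: spheroids exposed to drugs for 7 days.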
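For viability, T/C in this document: 100% = DMSO vehicle control viability.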

By IC50 is commonly meant the concentration needed to halve the response being measured. For orientation: viability, T/C means the result in the treated group divided by that in the control group, in per cent. Consider `C=CC(=O)N1CCN(c2nc(=O)n(-c3c(C)ccnc3C(C)C)c3nc(-c4c(O)cccc4F)c(F)cc23)C(C)C1` (centres undefined) + Cc1[nH]c2ccc(F)cc2c1-c1nc2c3cccnc3c3ncccc3c2[nH]1, for which the IC50 reads like this: under setting [1], greater than 10000 nM; under setting [2], greater than 10000 nM; under setting [3], greater than 10000 nM; under setting [4], greater than 10000 nM; under setting [5], greater than 10000 nM; under setting [6], greater than 10000 nM. In addition, the viability, T/C is, setting by setting: under setting [7], 92.4%; under setting [8], 87.1%; under setting [9], 92.5%; under setting [10], 85.2%; under setting [11], 107%; under setting [12], 94.9%. The viability, T/C was 95.7% under setting [13]; 97% under setting [14]; 101% under setting [15]; 78.5% under setting [16]; 113% under setting [17]; 92.8% under setting [18]. In addition, the viability, T/C by setting is: under setting [19], 98.9%; under setting [20], 110%; under setting [21], 89.3%; under setting [22], 91.3%; under setting [23], 97.2%; under setting [24], 88.7%. In addition, the viability, T/C reads like this: under setting [25], 98.1%; under setting [26], 88.4%; under setting [27], 107%; under setting [28], 87.6%; under setting [29], 111%; under setting [30], 96.3%. For the same compound, the viability, T/C is, setting by setting: under setting [31], 84%; under setting [32], 96.2%; under setting [33], 92%; under setting [34], 96%; under setting [35], 108%; under setting [36], 96%. The viability, T/C reads like this: under setting [37], 94%; under setting [38], 99.7%; under setting [39], 99.1%; under setting [40], 109%; under setting [41], 102%; under setting [42], 80.8%.

Consider `COc1cccc2c1C(=O)c1c(O)c3c(c(O)c1C2=O)CC(O)(C(=O)CO)CC3OC1CC(N)C(O)C(C)O1` (centres undefined), for which the viability, T/C was 108% and 97.9% and 88.6% (compound 0.0316 µM); 117% and 91.2% and 90.2% (compound 0.1 µM); 83.2% and 57.1% and 66.7% (compound 0.316 µM); 29.7% and 15.8% and 22.8% (compound 1 µM); 4.47% and 0.22% and 0.3% (compound 3.16 µM); 0.23% and 0.19% and 0.13% (compound 10 µM). Besides, the IC50 (curve of compound) was 649 nM and 388 nM and 494 nM.

For `Cc1cccc(N(C)C(=O)C2C(O)CCN2c2nc(C)cc(C(F)(F)F)c2C#N)c1` (centres undefined), the viability, T/C by setting is: (compound 0.0316 µM) 109% and 93.9% and 95.1%; (compound 0.1 µM) 91% and 94.3% and 102%; (compound 0.316 µM) 95.7% and 97.1% and 115%; (compound 1 µM) 102% and 99.7% and 99.6%; (compound 3.16 µM) 116% and 97.7% and 102%; (compound 10 µM) 102% and 104% and 91.5%. Further, under “curve of compound”, the IC50 was greater than 10000 nM.

Turning to `C=CCn1c(=O)c2cnc(Nc3ccc(N4CCN(C)CC4)cc3)nc2n1-c1cccc(C(C)(C)O)n1`, the viability, T/C (compound 0.0316 µM) was 117% and 101% and 93.2%; the viability, T/C (compound 0.1 µM) is 73.4% and 86.2% and 76.1%; the viability, T/C (compound 0.316 µM) was 13.5% and 16.9% and 22.7%; the viability, T/C (compound 1 µM) was 9.12% and 11.3% and 11.6%; the viability, T/C (compound 3.16 µM) was 8.45% and 9.04% and 11%; the viability, T/C (compound 10 µM) is 10.8% and 11.9% and 14.4%. Besides, the IC50 (curve of compound) was 157 nM and 182 nM and 175 nM.

Take `CC(C)n1c(=O)n(C)c2cnc3cc(F)c(-c4ccc(OCCCN5CCCCC5)nc4)cc3c21`: the viability, T/C reads like this: (compound 0.0316 µM) 99.3% and 98.7% and 80.8%; (compound 0.1 µM) 90.1% and 89.8% and 84.8%; (compound 0.316 µM) 106% and 104% and 82.1%; (compound 1 µM) 96.6% and 119% and 84.2%; (compound 3.16 µM) 104% and 106% and 97.2%; (compound 10 µM) 89.4% and 101% and 76%. Further, the IC50 (curve of compound) is greater than 10000 nM.

As to `CC1COCCN1c1cc(C2(O)CC3CCC(C2)O3)c2cnn(-c3ccn[nH]3)c2n1` (centres undefined) + Cc1cnc(CNC(=O)c2c(=O)c3ccc(N4CCCN(C)CC4)nc3n3c2sc2ccccc23)cn1, the IC50 runs as follows: under setting [1], less than 31.6 nM; under setting [2], less than 31.6 nM; under setting [3], less than 31.6 nM; under setting [4], less than 31.6 nM; under setting [5], less than 31.6 nM; under setting [6], less than 31.6 nM. The viability, T/C is, setting by setting: under setting [7], 31.3%; under setting [8], 13.1%; under setting [9], 5.91%; under setting [10], 3.51%; under setting [11], 5.56%; under setting [12], 3.63%. For the same compound, the viability, T/C by setting is: under setting [13], 38.7%; under setting [14], 16.4%; under setting [15], 8.6%; under setting [16], 4.53%; under setting [17], 4.78%; under setting [18], 2.97%. For the same compound, the viability, T/C was 37.7% under setting [19]; 20.9% under setting [20]; 13.4% under setting [21]; 6.49% under setting [22]; 4.71% under setting [23]; 2.1% under setting [24]. For the same compound, the viability, T/C is, setting by setting: under setting [25], 29.5%; under setting [26], 31.5%; under setting [27], 16.4%; under setting [28], 8.79%; under setting [29], 5.94%; under setting [30], 0.5%. Moreover, the viability, T/C by setting is: under setting [31], 36.2%; under setting [32], 31%; under setting [33], 19.5%; under setting [34], 10.8%; under setting [35], 5.54%; under setting [36], 0.33%. Further, the viability, T/C was 34.9% under setting [37]; 28.4% under setting [38]; 23.2% under setting [39]; 10.9% under setting [40]; 6.86% under setting [41]; 0.13% under setting [42].

Consider `CC1COCCN1c1cc(C2(O)CC3CCC(C2)O3)c2cnn(-c3ccn[nH]3)c2n1` (centres undefined), for which the viability, T/C was 64.6% and 66.1% and 52.2% (compound 0.0316 µM); 13.1% and 14.8% and 10% (compound 0.1 µM); 7.61% and 5.43% and 6.02% (compound 0.316 µM); 4.72% and 5.45% and 4.44% (compound 1 µM); 4.67% and 5.36% and 4.31% (compound 3.16 µM); 3.02% and 2.97% and 3.42% (compound 10 µM). The IC50 (curve of compound) is 43.7 nM and 45.3 nM and 33.4 nM.

The record behind these values is PubChem BioAssay AID2060512 (Molecular Pharmacology Branch, DTP, NCI, 2025).
